Our source for the Ki and melting point values is US8921397B2, “Benzofurane-piperidine compounds” (Hoffmann-La Roche Inc., priority 2011, dated 2014).

Data set [1] concerns the target human D2 receptor (Homo sapiens (Human), UniProt P14416). Kind of data set: Radioligand binding ([3H]-spiperone) to human D2 receptor, HEK293 EBNA membranes. The conditions noted are these: HEK293 EBNA cells expressing human D2 receptor. On the procedure: (§1) HEK293 EBNA cells were transiently transfected with expression plasmids encoding for the human D2 or D3 or for the human 5-HT2A receptor, respectively. The cells were harvested 48 h post-transfection, washed three times with cold PBS and stored at −80° C. prior to use. The pellet was suspended in cold 50 mM Tris-HCl buffer containing 10 mM EDTA (pH 7.4) and was homogenized with a Polytron (Kinematica AG, Basel, Switzerland) for 20-30 sec at 12.000 rpm. After centrifugation at 48.000×g for 30 min at 4° C., the pellet was resuspended in cold 10 mM Tris-HCl buffer containing 0.1 mM EDTA (pH 7.4), homogenized, and centrifuged as above. This pellet was further resuspended in a smaller volume of ice cold 10 mM Tris-HCl buffer containing 0.1 mM EDTA (pH 7.4) and homogenized with a Polytron for 20-30 sec at 12.000 rpm. The protein content of this homogenate was determined with the Bio-Rad (Bradford) Protein Assay (Biorad Laboratories GmbH, München, Germany) according to the instructions of the manufacturer using gamma globulin as the standard. This homogenate was stored at −80° C. in aliquots and thawed immediately prior to use.
(§2) Aliquots of membrane preparations were thawed at RT, resuspended in assay buffer (D2, D3: 50 mM Tris-HCl, 120 mM NaCl, 5 mM MgCl2, 1 mM EDTA, 5 mM KCl, 1.5 mM CaCl2, pH=7.4; 5-HT2A: 50 mM Tris-HCl, 10 mM MgCl2, 1 mM EGTA, pH=7.4), homogenized with a Polytron for 20-30 sec at 12.000 rpm and adjusted to a final concentration of approximately 7.5 μg protein/well (D2, D3) and 15 μg protein/well (5-HT2A), respectively.
(§3) The binding affinity (Ki) of the compounds was determined using radioligand binding.
(§4) Membranes were incubated in a total volume of 200 μl with a fixed concentration of radioligand (final concentration approximately 0.7 nM [^3H]-spiperone for D2, 0.5 nM [^3 H]-spiperone for D3, and 1.1 nM [^3H]-ketanserin for 5-HT2A) and ten concentrations of test compound in ranging between 10 μM-0.1 nM for 1 h at RT. At the end of the incubation, the reaction mixtures were filtered on to unifilter 96-well white microplates with bonded GF/C filters (Packard BioScience, Zürich, Switzerland; preincubated for 1 h in 0.1% polyethylenimine (PEI) in assay buffer) with a Filtermate 196 harvester (Packard BioScience) and washed 3 times with cold assay buffer. The nonspecific binding was determined with equally composed reaction mixtures in the presence of 10 μM unlabelled spiperone. Per well 45 μl of Microscint 40 (Perkin Elmer, Schwerzenbach, Switzerland) was added, plates for sealed, shaken for 20 min and counted for 3 min on a Topcount Microplate Scintillation Counter (Canberra Packard SA, Zürich, Switzerland) with quenching correction.
(§5) The CPM value for each duplicate of a concentration of competing compound was averaged (y1), then the % specific binding was calculated according to the equation (((y1−non-specific)/(total binding−non-specific))×100). Graphs were plotted with the % specific binding using XLfit, a curve-fitting program that iteratively plots the data using Levenberg-Marquardt algorithm. The single site competition analysis equation used was y=A+((B−A)/(1+((x/C)D))), where y is the % specific binding, A is the minimum y, B is the maximum y, C is the IC50, x is the log 10 of the concentration of the competing compound and D is the slope of the curve (the Hill Coefficient). From these curves the IC50 (inhibition concentration at which 50% specific binding of the radioligand was displaced) and Hill coefficient were determined. The affinity constant (Ki) was calculated using the Cheng-Prusoff equation Ki=(IC50/1+([L]/Kd), where [L] is the concentration of radioligand and Kd is the dissociation constant of the radioligand at the receptor as determined by the saturation isotherm.

The target of data set [2] is human D3 receptor (Homo sapiens (Human), UniProt P35462). Kind of data set: Radioligand binding ([3H]-spiperone) to human D3 receptor, HEK293 EBNA membranes. The conditions noted are these: HEK293 EBNA cells expressing human D3 receptor. As to the method:
as §1, §2, §3, §4, §5

Data set [3] addresses human 5-HT2A receptor (Homo sapiens (Human), UniProt P28223). Kind of data set: Radioligand binding ([3H]-ketanserin) to human 5-HT2A receptor, HEK293 EBNA membranes. The conditions noted are these: HEK293 EBNA cells expressing human 5-HT2A receptor. On the procedure: The ability of the compounds to bind to the 5-HT2A, D3 and D2 receptors was determined using radioligand binding to cloned receptors selectively expressed in HEK-293 EBNA cells.
as §1, §2, §3, §4, §5

Chain of human D3 receptor (P35462 whole entry): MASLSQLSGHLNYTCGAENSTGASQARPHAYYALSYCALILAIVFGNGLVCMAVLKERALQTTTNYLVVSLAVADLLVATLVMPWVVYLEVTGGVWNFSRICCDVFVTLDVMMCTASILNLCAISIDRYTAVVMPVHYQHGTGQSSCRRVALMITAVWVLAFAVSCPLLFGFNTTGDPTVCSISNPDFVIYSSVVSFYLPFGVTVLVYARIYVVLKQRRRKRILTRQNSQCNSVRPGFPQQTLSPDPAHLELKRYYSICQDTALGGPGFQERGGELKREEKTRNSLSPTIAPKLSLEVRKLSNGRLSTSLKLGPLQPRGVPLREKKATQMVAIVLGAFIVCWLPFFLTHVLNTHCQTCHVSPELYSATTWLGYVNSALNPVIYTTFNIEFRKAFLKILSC
Chain of human 5-HT2A receptor (P28223 whole entry): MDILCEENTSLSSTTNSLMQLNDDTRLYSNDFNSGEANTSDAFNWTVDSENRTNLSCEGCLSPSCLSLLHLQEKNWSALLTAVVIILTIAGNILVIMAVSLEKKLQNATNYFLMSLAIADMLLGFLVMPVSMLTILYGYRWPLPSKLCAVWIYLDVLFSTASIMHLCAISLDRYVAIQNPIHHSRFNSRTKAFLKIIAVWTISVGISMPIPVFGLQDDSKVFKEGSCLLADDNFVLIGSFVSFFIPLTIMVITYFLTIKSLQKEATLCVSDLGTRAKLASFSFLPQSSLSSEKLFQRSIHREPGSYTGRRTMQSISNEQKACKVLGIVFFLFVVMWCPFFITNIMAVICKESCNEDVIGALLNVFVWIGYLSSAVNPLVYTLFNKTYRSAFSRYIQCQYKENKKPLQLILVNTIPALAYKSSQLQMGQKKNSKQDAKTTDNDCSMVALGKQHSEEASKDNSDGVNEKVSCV
Chain of human D2 receptor (P14416 whole entry): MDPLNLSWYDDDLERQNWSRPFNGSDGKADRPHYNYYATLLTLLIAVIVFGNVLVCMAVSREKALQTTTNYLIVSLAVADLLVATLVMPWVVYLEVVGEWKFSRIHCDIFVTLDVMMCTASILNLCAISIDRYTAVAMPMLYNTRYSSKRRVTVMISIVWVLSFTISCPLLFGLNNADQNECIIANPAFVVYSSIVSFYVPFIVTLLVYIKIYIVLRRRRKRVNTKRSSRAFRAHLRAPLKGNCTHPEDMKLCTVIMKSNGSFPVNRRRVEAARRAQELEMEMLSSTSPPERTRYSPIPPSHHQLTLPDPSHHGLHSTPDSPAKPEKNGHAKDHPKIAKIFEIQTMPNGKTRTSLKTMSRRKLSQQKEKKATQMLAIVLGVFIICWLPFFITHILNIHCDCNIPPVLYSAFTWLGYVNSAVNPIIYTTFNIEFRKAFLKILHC

What is called Ki is the dissociation constant of the complex between target and ligand, obtained from inhibition or displacement. Broadly, the melting point is the temperature of the solid-liquid transition. `CC(C)C(=O)N[C@H]1CC[C@H](CCN2CCC(c3coc4ccccc34)CC2)CC1` [Example 14, trans-N-{4-[2-(4-Benzofuran-3-yl-piperidin-1-yl)-ethyl]-cyclohexyl}-isobutyramide] yielded a melting point of 173 °C. The inhibition constant Ki in data set [1] was found to be 39.5 nM. Besides, the Ki in data set [2] worked out at 1.78 nM. Besides, the Ki in data set [3] came to 5.75 nM.
With `O=C(N[C@H]1CC[C@H](CCN2CCC(c3coc4ccccc34)CC2)CC1)C1CCOCC1` [Example 3, Tetrahydro-pyran-4-carboxylic acid trans-{4-[2-(4-benzofuran-3-yl-piperidin-1-yl)-ethyl]-cyclohexyl}-amide], the melting point was 175 °C. In data set [1], the Ki worked out at 37.3 nM. The Ki in data set [2] came to 4.53 nM. In addition, the Ki in data set [3] was found to be 2.44 nM.
The like results for `O=C(N[C@H]1CC[C@H](CCN2CCC(c3coc4ccccc34)CC2)CC1)c1ccc2c(c1)OCO2` [Example 58, Benzo[1,3]dioxole-5-carboxylic acid trans-{4-[2-(4-benzofuran-3-yl-piperidin-1-yl)-ethyl]-cyclohexyl}-amide] were, in that order, 198 °C, 28.6 nM, 2.79 nM and 8.78 nM.
For `O=C(N[C@H]1CC[C@H](CCN2CCC(c3coc4ccccc34)CC2)CC1)c1ccc(-n2cccc2)cc1` [Example 68, trans-N-{4-[2-(4-Benzofuran-3-yl-piperidin-1-yl)-ethyl]-cyclohexyl}-4-pyrrol-1-yl-benzamide] the same measures were 212 °C, 34.3 nM, 4.58 nM and 10.2 nM.
`O=C(CC1CC1)N[C@H]1CC[C@H](CCN2CCC(c3coc4ccccc34)CC2)CC1` [Example 25, trans-N-{4-[2-(4-Benzofuran-3-yl-piperidin-1-yl)-ethyl]-cyclohexyl}-2-cyclopropyl-acetamide] displayed a melting point of 165 °C. In data set [1], the Ki stood at 33.7 nM. In addition, in data set [2], the Ki worked out at 2.24 nM. For the same compound, in data set [3], the Ki was found to be 5.16 nM.
Consider `O=C(N[C@H]1CC[C@H](CCN2CCC(c3coc4ccccc34)CC2)CC1)c1ccc(-c2ccccc2)cc1` [Example 63, Biphenyl-4-carboxylic acid trans-{4-[2-(4-benzofuran-3-yl-piperidin-1-yl)-ethyl]-cyclohexyl}-amide], for which the melting point amounted to 235 °C. The Ki in data set [1] stood at 22.1 nM. In addition, the Ki in data set [2] is 3.37 nM. Moreover, in data set [3], the inhibition constant (Ki) came out at 5.21 nM.
As for `CC[C@H](O)CC(=O)N[C@H]1CC[C@H](CCN2CCC(c3coc4ccccc34)CC2)CC1` [Example 47, (S)-3-Hydroxy-pentanoic acid trans-{4-[2-(4-benzofuran-3-yl-piperidin-1-yl)-ethyl]-cyclohexyl}-amide], the melting point worked out at 140 °C. The Ki in data set [1] is 33.8 nM. For the same compound, the inhibition constant (Ki) in data set [2] is 2.25 nM. The Ki in data set [3] came out at 9.1 nM.
With `Cc1ccc(S(=O)(=O)N[C@H]2CC[C@H](CCN3CCC(c4coc5ccccc45)CC3)CC2)cc1` [Example 38, trans-N-{4-[2-(4-Benzofuran-3-yl-piperidin-1-yl)-ethyl]-cyclohexyl}-4-methyl-benzenesulfonamide], the melting point was 149 °C. In addition, the Ki in data set [1] worked out at 58.6 nM. Also, the inhibitory constant (Ki) in data set [2] was determined as 6.24 nM. In addition, the Ki in data set [3] came to 41.5 nM.
With `CC(C)(C)Oc1ccc(C(=O)N[C@H]2CC[C@H](CCN3CCC(c4coc5ccccc45)CC3)CC2)cc1` [Example 71, trans-N-{4-[2-(4-Benzofuran-3-yl-piperidin-1-yl)-ethyl]-cyclohexyl}-4-tert-butoxy-benzamide], the melting point turned out to be 186 °C. Moreover, the Ki in data set [1] worked out at 168 nM. Also, the Ki in data set [2] turned out to be 2.14 nM. Also, the Ki in data set [3] was determined as 5.56 nM.
`CCS(=O)(=O)N[C@H]1CC[C@H](CCN2CCC(c3coc4ccccc34)CC2)CC1` [Example 37, Ethanesulfonic acid trans-{4-[2-(4-benzofuran-3-yl-piperidin-1-yl)-ethyl]-cyclohexyl}-amide] came in with a melting point of 153 °C. Besides, the inhibition constant (Ki) in data set [1] is 48 nM. The Ki in data set [2] is 2.87 nM. The inhibition constant (Ki) in data set [3] is 5.07 nM.
The like results for `O=C(CO)N[C@H]1CC[C@H](CCN2CCC(c3coc4ccccc34)CC2)CC1` [Example 11, trans-N-{4-[2-(4-Benzofuran-3-yl-piperidin-1-yl)-ethyl]-cyclohexyl}-2-hydroxy-acetamide] were, in that order, 161 °C, 46.5 nM, 1.47 nM and 4.92 nM.
In turn, `CCC(C)C(=O)N[C@H]1CC[C@H](CCN2CCC(c3coc4ccccc34)CC2)CC1` (mixture of isomers) [Example 31, trans-N-{4-[2-(4-Benzofuran-3-yl-piperidin-1-yl)-ethyl]-cyclohexyl}-(RS)-2-methyl-butyramide] returned a melting point of 172 °C. In addition, the inhibition constant Ki in data set [1] worked out at 46 nM. For the same compound, in data set [2], the inhibition constant (Ki) came out at 4.83 nM. For the same compound, in data set [3], the inhibitory constant (Ki) was determined as 6.56 nM.
`O=CN[C@H]1CC[C@H](CCN2CCC(c3coc4ccccc34)CC2)CC1` [Example 56, trans-N-{4-[2-(4-Benzofuran-3-yl-piperidin-1-yl)-ethyl]-cyclohexyl}-formamide] displayed a melting point of 155 °C. In data set [1], the Ki amounted to 38.8 nM. Also, the Ki in data set [2] is 2.68 nM. In addition, the inhibition constant Ki in data set [3] was 13.4 nM.
For `O=C(N[C@H]1CC[C@H](CCN2CCC(c3coc4ccccc34)CC2)CC1)C1CCCO1` (mixture of isomers) [Example 18, (RS)-Tetrahydro-furan-2-carboxylic acid trans-{4-[2-(4-benzofuran-3-yl-piperidin-1-yl)-ethyl]-cyclohexyl}-amide] the same measures were 132 °C, 81.5 nM, 9.2 nM and 2.88 nM.
For `O=C(N[C@H]1CC[C@H](CCN2CCC(c3coc4ccccc34)CC2)CC1)c1ccc(F)cc1` [Example 24, trans-N-{4-[2-(4-Benzofuran-3-yl-piperidin-1-yl)-ethyl]-cyclohexyl}-4-fluoro-benzamide] the same measures were 193 °C, 68.9 nM, 3.05 nM and 5.66 nM.
`O=C(CC(F)(F)F)N[C@H]1CC[C@H](CCN2CCC(c3coc4ccccc34)CC2)CC1` [Example 12, trans-N-{4-[2-(4-Benzofuran-3-yl-piperidin-1-yl)-ethyl]-cyclohexyl}-3,3,3-trifluoro-propionamide] had a melting point of 182 °C. Further, the Ki in data set [1] amounted to 42.7 nM. In data set [2], the Ki is 0.99 nM. Besides, the inhibition constant (Ki) in data set [3] came out at 8.06 nM.
`CN1CCN(c2ccc(C(=O)N[C@H]3CC[C@H](CCN4CCC(c5coc6ccccc56)CC4)CC3)cc2)CC1` [Example 62, trans-N-{4-[2-(4-Benzofuran-3-yl-piperidin-1-yl)-ethyl]-cyclohexyl}-4-(4-methyl-piperazin-1-yl)-benzamide] yielded a melting point of 242 °C. For the same compound, in data set [1], the Ki was determined as 50.1 nM. In addition, the Ki in data set [2] stood at 6.03 nM. For the same compound, the Ki in data set [3] was determined as 8.83 nM.
